This is an account of results in US8188078B2 (Sanofi-Aventis, priority 2007, dated 2012).

Each structure is given as a SMILES string. Bounds are passed on as bounds.

The IC50 is the concentration that gives 50% inhibition. A low value points to inhibition by little substance.

The target in one experiment is T1, MET (Homo sapiens, UniProt P08581).
T1 construct: endogenous in cells; host or cells: MKN45 cells
As to the kind of experiment: Test C: inhibition of the autophosphorylation of MET, ELISA technique (pppY1230, 1234, 1235), MKN45 cells. It is filed as cell-based. An outline of the steps:
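MKN45 cells adhered 24 h, then treated 1 h with compound at 6 concentrations in duplicate, final range 10000 to 30 nM. Lysates assayed by phospho-MET (pY1230/1234/1235) sandwich ELISA with HRP chromogen read at 450 nm.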
Background: An ELISA detects its analyte on a solid surface through an enzyme-linked reagent.

A further experiment has as its target RON (Homo sapiens, UniProt Q04912). Nature of the experiment: Test B: HTRF RON test in 96-well format. It is filed as biochemical. An outline of the steps:
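RON 5 nM pre-incubated 30 min at RT with compound (0.17 nM–10 μM final, 3% DMSO) in MOPS 10 mM pH 7, DTT, Tween 20. Reaction with biotinylated poly-(GAT) 1 μg/ml, ATP 10 μM, MgCl2 5 mM, 30 min RT. Eu-anti-pTyr/streptavidin-XL665 HTRF, 665/620 ratio gives % inhibition, IC50.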

Sequence of RON (Q04912 25-1400): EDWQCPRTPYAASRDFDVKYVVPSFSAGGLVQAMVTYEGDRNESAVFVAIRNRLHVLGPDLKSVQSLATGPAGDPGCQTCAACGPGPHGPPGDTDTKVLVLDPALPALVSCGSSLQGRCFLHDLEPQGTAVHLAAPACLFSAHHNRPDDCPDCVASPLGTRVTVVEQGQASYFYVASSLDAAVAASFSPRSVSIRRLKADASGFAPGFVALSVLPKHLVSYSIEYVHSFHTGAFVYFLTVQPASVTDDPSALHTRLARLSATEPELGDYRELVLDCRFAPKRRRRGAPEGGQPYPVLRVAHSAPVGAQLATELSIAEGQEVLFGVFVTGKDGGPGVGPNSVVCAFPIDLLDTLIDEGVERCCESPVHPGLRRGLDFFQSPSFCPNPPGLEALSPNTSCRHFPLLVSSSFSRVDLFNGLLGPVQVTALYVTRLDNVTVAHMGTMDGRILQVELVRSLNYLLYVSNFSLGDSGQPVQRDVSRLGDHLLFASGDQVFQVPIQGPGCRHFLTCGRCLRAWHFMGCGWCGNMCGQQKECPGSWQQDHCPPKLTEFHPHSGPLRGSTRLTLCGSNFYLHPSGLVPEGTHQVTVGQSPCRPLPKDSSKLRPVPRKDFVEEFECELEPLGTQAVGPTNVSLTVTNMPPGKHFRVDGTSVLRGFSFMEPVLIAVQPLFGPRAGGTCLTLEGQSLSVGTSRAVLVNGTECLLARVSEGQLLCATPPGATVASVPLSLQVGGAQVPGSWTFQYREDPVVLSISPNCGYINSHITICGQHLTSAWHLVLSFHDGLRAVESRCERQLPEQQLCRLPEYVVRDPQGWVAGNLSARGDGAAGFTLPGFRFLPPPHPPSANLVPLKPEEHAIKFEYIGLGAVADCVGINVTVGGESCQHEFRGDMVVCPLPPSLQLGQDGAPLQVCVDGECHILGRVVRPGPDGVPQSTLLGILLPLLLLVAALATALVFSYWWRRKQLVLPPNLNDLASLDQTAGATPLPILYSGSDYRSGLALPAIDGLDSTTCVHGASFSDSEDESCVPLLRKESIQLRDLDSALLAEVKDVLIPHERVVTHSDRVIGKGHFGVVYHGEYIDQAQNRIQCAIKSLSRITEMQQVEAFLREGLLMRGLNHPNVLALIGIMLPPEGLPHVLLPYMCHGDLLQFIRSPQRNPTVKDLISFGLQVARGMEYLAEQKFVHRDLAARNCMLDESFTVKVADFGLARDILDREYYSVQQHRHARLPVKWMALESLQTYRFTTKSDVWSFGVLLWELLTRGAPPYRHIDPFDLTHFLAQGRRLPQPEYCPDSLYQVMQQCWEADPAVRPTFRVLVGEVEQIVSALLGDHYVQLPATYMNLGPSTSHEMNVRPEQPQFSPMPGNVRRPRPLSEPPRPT
T1 sequence (P08581 25-1390): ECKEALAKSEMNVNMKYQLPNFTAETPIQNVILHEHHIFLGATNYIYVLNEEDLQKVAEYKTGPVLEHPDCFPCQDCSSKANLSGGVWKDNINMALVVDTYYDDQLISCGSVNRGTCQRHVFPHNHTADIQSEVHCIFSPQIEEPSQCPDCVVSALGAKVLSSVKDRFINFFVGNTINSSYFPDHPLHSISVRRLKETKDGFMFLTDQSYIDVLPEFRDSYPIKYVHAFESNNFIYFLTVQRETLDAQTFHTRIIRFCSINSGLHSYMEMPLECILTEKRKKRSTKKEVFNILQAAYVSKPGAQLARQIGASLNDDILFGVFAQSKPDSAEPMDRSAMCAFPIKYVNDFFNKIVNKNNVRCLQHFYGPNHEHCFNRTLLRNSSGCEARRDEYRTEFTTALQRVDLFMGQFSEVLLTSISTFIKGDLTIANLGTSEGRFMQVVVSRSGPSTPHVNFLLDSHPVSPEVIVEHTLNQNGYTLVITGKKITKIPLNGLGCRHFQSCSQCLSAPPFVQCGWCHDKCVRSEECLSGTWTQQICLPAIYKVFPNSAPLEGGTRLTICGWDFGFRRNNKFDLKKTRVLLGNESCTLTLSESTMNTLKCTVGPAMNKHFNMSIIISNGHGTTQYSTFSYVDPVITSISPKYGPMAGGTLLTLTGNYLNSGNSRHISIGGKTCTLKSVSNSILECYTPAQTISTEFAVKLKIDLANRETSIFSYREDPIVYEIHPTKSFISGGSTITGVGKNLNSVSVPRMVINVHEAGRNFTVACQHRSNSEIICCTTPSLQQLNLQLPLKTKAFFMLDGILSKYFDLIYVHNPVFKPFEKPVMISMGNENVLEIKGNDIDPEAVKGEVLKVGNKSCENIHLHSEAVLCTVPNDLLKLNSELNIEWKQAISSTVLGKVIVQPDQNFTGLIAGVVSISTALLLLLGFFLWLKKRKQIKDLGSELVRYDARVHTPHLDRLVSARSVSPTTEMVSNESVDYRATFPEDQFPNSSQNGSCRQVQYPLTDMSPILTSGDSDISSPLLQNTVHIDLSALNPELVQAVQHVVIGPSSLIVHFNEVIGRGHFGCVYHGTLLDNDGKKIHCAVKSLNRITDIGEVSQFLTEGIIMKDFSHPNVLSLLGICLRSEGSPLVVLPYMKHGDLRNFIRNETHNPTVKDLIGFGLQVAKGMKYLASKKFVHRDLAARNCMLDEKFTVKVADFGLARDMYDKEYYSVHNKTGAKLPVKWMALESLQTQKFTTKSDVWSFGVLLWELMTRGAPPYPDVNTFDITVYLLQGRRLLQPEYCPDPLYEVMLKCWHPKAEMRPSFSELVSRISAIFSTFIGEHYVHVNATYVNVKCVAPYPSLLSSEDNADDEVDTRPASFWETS

On to `CC(Oc1cc2sc(NC(=O)NCCN3CCOCC3)nc2cc1F)c1c(Cl)ccc(F)c1Cl` (centres unmarked) [Example 31, 1-{6-[1-(2,6-dichloro-3-fluorophenyl)ethoxy]-5-fluoro-1,3-benzothiazol-2-yl}-3-(2-morpholin-4-ylethyl)urea], for which the IC50 against MET and on RON was < 500 nM in each case.

Consider `CCN1CCN(CCNC(=O)Nc2nc3cc(F)c(OC(C)c4c(Cl)ccc(F)c4Cl)cc3s2)CC1` (single isomer, unassigned) [Example 101, 1-{6-[(1R*)-1-(2,6-dichloro-3-fluorophenyl)ethoxy]-5-fluoro-1,3-benzothiazol-2-yl}-3-[2-(4-ethylpiperazin-1-yl)ethyl]urea], for which the half-maximal inhibitory concentration (IC50) against MET and against RON was < 500 nM each time.

In the case of `CC(Oc1ccc2nc(NC(=O)NCCN3CCN(C)CC3)sc2c1)c1c(F)ccc(Cl)c1Cl` (single isomer, unassigned) [Example 109, 1-{6-[(1R*)-1-(2,3-dichloro-6-fluorophenyl)ethoxy]-1,3-benzothiazol-2-yl}-3-[2-(4-methylpiperazin-1-yl)ethyl]urea], the IC50 against MET and at RON was < 500 nM throughout.

In the case of `CC(Oc1ccc2nc(NC(=O)NCCN3CCCC3)sc2c1)c1c(F)ccc(Cl)c1Cl` (single isomer, unassigned) [Example 121, 1-{6-[(1R*)-(2,3-dichloro-6-fluorophenyl)ethoxy]-1,3-benzothiazol-2-yl}-3-[2-(pyrrolidin-1-yl)ethyl]urea], the IC50 against MET and at RON was < 500 nM in each case.
